Measured values taken from US11596622B2, “Mazindol treatment for heroin dependence and substance use disorder” (NLS Pharmaceutics AG, priority 2017, dated 2023).

What was measured:
5-HT transporter(h) = target: T1, 5-HT transporter(h) (Homo sapiens, UniProt P31645); assay: Radioligand binding, 5-HT transporter (Eurofins CEREP); conditions: 1.0 × 10^−05 M; antagonist radioligand
T1 construct: Eurofins CEREP
From the text: (§1) Table A discloses mazindol and Met tested at […] and the compound binding calculated as a percent inhibition of the binding of a radioactively labeled ligand specific for each target (Eurofins CEREP, France).
(§2) An inhibition or stimulation of more than 50% is considered a significant effect of the test compounds. Fifty percent is a common cut-off for further investigation (i.e. determination of IC50 or EC50 values from concentration-response curves).
(§3) The results are expressed as a percent of control specific binding obtained in the presence of the test compounds:
(§4) [formula] and as a percent inhibition of control specific binding obtained in the presence of the test compounds: […]

5-HT1A(h) = target: T2, 5-HT1A(h) (Homo sapiens, UniProt P08908); assay: Radioligand binding, 5-HT1A (Eurofins CEREP); conditions: 1.0 × 10^−05 M; agonist radioligand
T2 construct: Eurofins CEREP
T2 sequence (P08908 1-422): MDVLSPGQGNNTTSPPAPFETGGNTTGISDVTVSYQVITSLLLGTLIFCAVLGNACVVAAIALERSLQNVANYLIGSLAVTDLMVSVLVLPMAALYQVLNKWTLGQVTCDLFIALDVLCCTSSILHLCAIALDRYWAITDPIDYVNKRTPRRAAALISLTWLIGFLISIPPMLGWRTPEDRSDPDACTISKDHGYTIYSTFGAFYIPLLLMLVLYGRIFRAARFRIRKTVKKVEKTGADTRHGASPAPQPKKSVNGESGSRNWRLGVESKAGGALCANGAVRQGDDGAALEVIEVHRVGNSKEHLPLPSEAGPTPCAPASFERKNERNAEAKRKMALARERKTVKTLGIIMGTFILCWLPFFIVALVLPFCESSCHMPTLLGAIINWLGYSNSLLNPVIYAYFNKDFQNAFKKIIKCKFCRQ
From the text: as §1, §2, §3, §4

Dopamine transporter(h) = target: T3, Dopamine transporter(h) (Homo sapiens, UniProt Q01959); assay: Radioligand binding, dopamine transporter (Eurofins CEREP); conditions: 1.0 × 10^−05 M; antagonist radioligand
T3 construct: Eurofins CEREP
T3 sequence (Q01959 whole entry): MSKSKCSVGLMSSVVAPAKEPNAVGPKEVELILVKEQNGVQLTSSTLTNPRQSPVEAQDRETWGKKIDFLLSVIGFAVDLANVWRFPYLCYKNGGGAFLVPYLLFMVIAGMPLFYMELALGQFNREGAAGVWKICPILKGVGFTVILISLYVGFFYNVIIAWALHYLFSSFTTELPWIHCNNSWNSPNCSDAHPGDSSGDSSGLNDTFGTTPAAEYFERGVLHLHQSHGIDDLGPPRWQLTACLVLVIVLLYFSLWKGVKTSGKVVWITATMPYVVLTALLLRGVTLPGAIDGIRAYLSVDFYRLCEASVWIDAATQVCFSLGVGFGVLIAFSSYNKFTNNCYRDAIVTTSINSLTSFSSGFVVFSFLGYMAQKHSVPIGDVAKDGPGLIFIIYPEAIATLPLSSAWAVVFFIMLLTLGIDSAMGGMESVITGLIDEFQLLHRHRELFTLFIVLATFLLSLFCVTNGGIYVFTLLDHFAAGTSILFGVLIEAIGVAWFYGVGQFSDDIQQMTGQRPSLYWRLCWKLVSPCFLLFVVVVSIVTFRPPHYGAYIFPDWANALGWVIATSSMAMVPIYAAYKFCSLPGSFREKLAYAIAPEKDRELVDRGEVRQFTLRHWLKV
From the text: as §1, §2, §3, §4

H1(h) = target: T4, H1(h) (Homo sapiens, UniProt P35367); assay: Radioligand binding, H1 (Eurofins CEREP); conditions: 1.0 × 10^−05 M; antagonist radioligand
T4 construct: Eurofins CEREP
T4 sequence (P35367 whole entry): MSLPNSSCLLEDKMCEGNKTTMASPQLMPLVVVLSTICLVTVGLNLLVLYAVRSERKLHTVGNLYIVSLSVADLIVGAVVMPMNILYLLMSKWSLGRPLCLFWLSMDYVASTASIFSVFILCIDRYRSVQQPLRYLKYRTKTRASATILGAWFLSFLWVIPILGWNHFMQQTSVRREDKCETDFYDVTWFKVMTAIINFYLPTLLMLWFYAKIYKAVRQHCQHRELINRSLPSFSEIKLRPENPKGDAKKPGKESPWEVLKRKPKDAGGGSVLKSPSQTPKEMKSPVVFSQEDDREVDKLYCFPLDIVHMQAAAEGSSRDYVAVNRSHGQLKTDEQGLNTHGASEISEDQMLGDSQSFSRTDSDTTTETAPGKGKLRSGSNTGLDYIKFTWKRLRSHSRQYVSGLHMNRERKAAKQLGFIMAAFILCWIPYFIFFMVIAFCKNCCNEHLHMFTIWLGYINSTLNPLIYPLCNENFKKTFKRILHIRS
From the text: as §1
as §2, with “curves). Tables B and C display the binding profiles for Mazindol and Met.” for “curves).”
as §3, §4

M1(h) = target: T5, M1(h) (Homo sapiens, UniProt P11229); assay: Radioligand binding, M1 (Eurofins CEREP); conditions: 1.0 × 10^−05 M; antagonist radioligand
T5 construct: Eurofins CEREP
T5 sequence (P11229 1-460): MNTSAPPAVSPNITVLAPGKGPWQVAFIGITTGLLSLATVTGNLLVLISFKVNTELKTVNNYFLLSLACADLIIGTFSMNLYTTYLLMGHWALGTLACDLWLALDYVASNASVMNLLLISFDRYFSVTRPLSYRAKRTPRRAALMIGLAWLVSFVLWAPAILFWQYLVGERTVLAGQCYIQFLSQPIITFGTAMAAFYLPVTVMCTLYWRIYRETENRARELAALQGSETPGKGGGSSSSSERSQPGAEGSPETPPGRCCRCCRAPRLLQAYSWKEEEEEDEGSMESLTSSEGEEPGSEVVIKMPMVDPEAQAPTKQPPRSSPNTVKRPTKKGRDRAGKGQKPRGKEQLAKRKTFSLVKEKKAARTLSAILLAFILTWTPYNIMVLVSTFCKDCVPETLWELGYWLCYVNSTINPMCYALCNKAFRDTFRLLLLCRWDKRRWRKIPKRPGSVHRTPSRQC
From the text: as §1
as §2, with “curves). Tables B and C display the binding profiles for Mazindol and Met.” for “curves).”
as §3, §4

μ (MOP) (h) = target: T6, μ (MOP) (h) (Homo sapiens, UniProt P35372); assay: Radioligand binding, μ opioid receptor (Eurofins CEREP)
T6 construct: Eurofins CEREP
T6 sequence (P35372 whole entry): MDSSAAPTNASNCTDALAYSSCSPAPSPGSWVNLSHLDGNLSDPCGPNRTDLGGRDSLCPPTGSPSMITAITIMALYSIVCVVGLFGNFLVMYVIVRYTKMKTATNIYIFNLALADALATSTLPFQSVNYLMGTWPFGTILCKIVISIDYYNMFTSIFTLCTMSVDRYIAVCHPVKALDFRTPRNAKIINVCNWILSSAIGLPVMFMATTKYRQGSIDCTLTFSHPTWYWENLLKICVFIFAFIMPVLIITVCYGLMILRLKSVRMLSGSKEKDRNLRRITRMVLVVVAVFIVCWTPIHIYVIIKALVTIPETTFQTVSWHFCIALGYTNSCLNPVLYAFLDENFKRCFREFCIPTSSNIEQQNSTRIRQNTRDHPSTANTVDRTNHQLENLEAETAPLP
From the text: as §1
as §2, with “curves). Tables B and C display the binding profiles for Mazindol and Met.” for “curves).”
as §3, §4

[1] = target: T7, Norepinephrine transporter (h) (Homo sapiens, UniProt P23975); assay: Radioligand binding, norepinephrine transporter (Eurofins CEREP); conditions: 1.0 × 10^−05 M; antagonist radioligand
T7 construct: Eurofins CEREP
T7 sequence (P23975 whole entry): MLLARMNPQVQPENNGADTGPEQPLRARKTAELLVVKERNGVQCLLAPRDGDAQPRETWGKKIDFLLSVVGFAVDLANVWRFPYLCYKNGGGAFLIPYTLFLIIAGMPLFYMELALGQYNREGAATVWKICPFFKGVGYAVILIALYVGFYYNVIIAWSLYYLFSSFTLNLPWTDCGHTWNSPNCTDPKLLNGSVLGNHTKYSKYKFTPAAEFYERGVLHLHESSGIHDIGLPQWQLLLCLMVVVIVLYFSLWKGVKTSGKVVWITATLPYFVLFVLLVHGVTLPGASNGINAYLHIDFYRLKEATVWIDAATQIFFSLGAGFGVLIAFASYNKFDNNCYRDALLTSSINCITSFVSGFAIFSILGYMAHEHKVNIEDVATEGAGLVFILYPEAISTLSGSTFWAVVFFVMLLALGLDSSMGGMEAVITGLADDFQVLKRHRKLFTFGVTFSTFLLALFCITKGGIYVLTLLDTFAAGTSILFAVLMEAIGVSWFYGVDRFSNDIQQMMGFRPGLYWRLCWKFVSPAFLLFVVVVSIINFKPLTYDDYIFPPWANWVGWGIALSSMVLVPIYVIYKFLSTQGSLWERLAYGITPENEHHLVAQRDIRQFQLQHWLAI
From the text: as §1
as §2, with “curves). Tables B and C display the binding profiles for Mazindol and Met.” for “curves).”
as §3, §4

k (KOP) = target: T8, k (KOP) (Rattus norvegicus, UniProt P34975); assay: Radioligand binding, κ opioid receptor (Eurofins CEREP)
T8 construct: Eurofins CEREP
T8 sequence (P34975 whole entry): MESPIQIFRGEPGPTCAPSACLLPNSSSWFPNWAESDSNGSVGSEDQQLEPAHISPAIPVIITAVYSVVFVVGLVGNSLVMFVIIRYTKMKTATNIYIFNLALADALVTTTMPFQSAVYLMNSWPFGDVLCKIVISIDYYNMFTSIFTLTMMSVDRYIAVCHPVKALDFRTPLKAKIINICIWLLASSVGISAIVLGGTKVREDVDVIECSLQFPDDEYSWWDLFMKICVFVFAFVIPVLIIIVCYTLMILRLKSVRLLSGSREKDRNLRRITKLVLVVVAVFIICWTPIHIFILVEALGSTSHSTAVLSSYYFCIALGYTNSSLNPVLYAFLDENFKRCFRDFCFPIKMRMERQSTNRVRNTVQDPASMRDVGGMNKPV
From the text: as §1
as §2, with “curves). Tables B and C display the binding profiles for Mazindol and Met.” for “curves).”
as §3, §4

[2] = 1.0 × 10^−05 M, agonist radioligand

T1 sequence (P31645 whole entry): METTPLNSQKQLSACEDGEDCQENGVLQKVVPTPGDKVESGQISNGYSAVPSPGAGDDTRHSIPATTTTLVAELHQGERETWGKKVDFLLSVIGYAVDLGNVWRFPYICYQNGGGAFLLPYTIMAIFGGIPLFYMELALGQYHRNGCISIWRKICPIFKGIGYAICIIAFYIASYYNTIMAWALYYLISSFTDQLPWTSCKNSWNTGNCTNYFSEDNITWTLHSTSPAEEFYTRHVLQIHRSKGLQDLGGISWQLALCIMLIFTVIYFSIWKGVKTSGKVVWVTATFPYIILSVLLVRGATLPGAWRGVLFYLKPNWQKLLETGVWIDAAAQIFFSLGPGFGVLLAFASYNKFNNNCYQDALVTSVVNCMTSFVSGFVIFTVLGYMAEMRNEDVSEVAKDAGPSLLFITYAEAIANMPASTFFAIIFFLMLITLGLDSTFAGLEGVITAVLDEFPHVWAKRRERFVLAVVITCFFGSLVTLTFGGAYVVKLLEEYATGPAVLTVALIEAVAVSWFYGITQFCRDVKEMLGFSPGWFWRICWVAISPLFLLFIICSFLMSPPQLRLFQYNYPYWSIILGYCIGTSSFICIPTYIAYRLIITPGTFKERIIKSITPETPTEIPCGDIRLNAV

With NCCN1C(=O)c2ccccc2C1(O)c1ccc(Cl)cc1 (stereo not shown) [Mazindol Metabolite, 2-(2-Aminoethyl)-3-(p-chlorophenyl)-3-hydroxyphthalimidine] as the molecule, how does the “percent inhibition of the binding of a radioactively labeled ligand” value (“percent inhibition” below) (5-HT transporter(h)) read?
The value was 98.5%.

And the “percent inhibition” value (5-HT1A(h))?
Its value is 86.3%.

And the “percent inhibition” value (Dopamine transporter(h))?
Its value is 101%.

What about the “percent inhibition” value (H1(h)) of the same molecule?
The value was 75.5%.

What about the “percent inhibition” value (M1(h)) of the same molecule?
Its value is 50.4%.

And the “percent inhibition” value (μ (MOP) (h); [2])?
The value was 87.9%.

What about the “affinity for μ-opioid receptors” value (μ (MOP) (h); compared with amphetamines) of the same molecule?
The value was “higher affinity”.

What about the “percent inhibition” value [1] of the same molecule?
The value was 100.2%.

And the “affinity for κ-opioid receptors” value (k (KOP))?
The value was “modest affinity”.

What about the “percent inhibition” value (k (KOP); [2]) of the same molecule?
Its value is 53.3%.
